Assays:
Aspergillus fumigatus = assay: Antibacterial test to Aspergillus fumigatus (96-hole plate, IC80); type: cell-based; conditions: YNB culture with 0.22% low melting point-agarose, 1×10^4 cell/ml, 25° C., 72 hours, absorbance at 620 nm
Description: (Antibacterial Test to Aspergillus fumigatus)
In the test example, a test was performed on the antibacterial of the compounds according to the present invention to Aspergillus fumigatus in the method later described.
Aspergillus fumigatus was cultivated in Sabouraud's agar at 37° C. for 3 days, after the spores to be used for the test were formed, the spore suspension was prepared. The spore suspension was suspended in YNB culture to which a 0.22% low melting point-agarose was added so as to allow the final concentration to be 1×10^4 cell/ml, and the solution was poured into each hole on a 96-hole flat-bottomed plate. Next, the dilution trains using each of the compounds according to the present invention were added, the solution was cultivated at 25° C. for 72 hours, and the propagation rate of the mold was evaluated by measuring the absorbance at 620 nm. With such a test, the propagation rate of the mold in the chemical-free test area was compared with this case to find the concentration of the compound where the propagation rate of the mold is suppressed by 80% as IC 80 (80% growth inhibition concentration).

[1] = system: Erysiphe graminis f. sp tritici; assay: Preventive effect test of wheat powdery mildew (wettable powder sprayed on potted wheat, preventive value); type: in vivo; conditions: wettable powder suspended at 250 mg/l, sprayed on potted wheat at 100 l/10 a; morbidity investigated 9th to 14th day after inoculation
Description: (Preventive Effect Test of Erysiphe graminis f. sp […])
The wettable powders obtained by using each compound were diluted with water and were suspended at a predetermined concentration (250 mg/l) and the solution was sprayed over the first to second leaf stage-wheat (variety. Agriculture and Forestry No. 64) cultivated by using a square plastic pot (size: 6.4 cm×6.4 cm) at a rate of 100 1/10 a (are).
After the sprayed leaves were air-dried, the suspension of the spore of Erysiphe graminis f. sp tritici germ sampled from the contracted leaves were sprayed and inoculated over the sprayed leaf after air-dried, the leaves were kept at 20 to 24° C. under a high-humidity condition for 24 hours, then, the leaves were subjected to still standing in a greenhouse (temperature: 20 to 24° C. and relative humidity: 20 to 70 RH). The morbidity rate was investigated based on the following investigation standard on 9th to 14th day after the inoculation and the preventive value was calculated according to the following formula 1.

Candida albicans = assay: Antibacterial test to Candida albicans (96-hole plate, IC80); type: cell-based; conditions: cultivated at 35° C. for 72 hours, absorbance at 540 nm
Description: (Antibacterial Test to Candida albicans) In the test examples, a test was performed on the antibacterial of the compounds according to the present invention to Candida albicans in the methods later described. The culture dilution train containing each compound was prepared by using a 96-hole flat-bottomed plate, and the inoculation mold solution controlled at 1 to 5×10^3 cell/ml beforehand of 10 μl was added to each hole on the plate. After the inoculation, the molds were cultivated at 35° C. for 72 hours, and the propagation of the mold was evaluated by measuring the absorbance at 540 nm. With such a test, the propagation of the mold in this case was compared with the propagation of the mold in the chemical-free test area to find the concentration of a compound where the propagation rate of the mold is suppressed by 80% as IC 80 (80% growth inhibition concentration).

Microdohium nivale = assay: Antibacterial test to various phytopathogen, PDA plate culture, suppression of mold elongation; type: cell-based; conditions: final concentration 100 mg/l, 1 to 3 days; for inhibition at 100 µg/mL: read-out: Inhibition Rate of Growth (suppression rate of the mold elongation, 5-step grade) M.n.
Description: (§1) (Antibacterial Test to Various Phytopathogen)
(§2) In the test examples, a test was performed on the antibacterial of the compounds according to the present invention to various phytopathogenic molds in the methods later described.
(§3) The compounds of 10 mg were each weighed and they were each dissolved in dimethylsulfoxide of 1 ml. The solution of 0.6 ml was added to PDA culture medium (potato-dextrose-agar culture medium) of 60 ml at about 60° C, the solutions were well mixed in an Erlenmeyer flask of 100 ml, and the solution was poured into a Schale and was solidified therein to prepare a plate culture containing the compound according to the present invention of final concentration of 100 mg/l.
(§4) On the other hand, the sample molds on the plate cultured beforehand were punched by a cork borer of diameter of 4 mm, and they were inoculated on the plate culture containing the aforementioned chemical material. After the inoculation, the molds were inoculated at the appropriate growth temperatures of each mold (for the appropriate growth temperatures, for example, the Reference, LIST OF CULTURE 1996 MICROORGANISM 10th edition published by Institute for Fermentation can be referred to.) for 1 to 3 days, the growth rates of the molds were evaluated by measuring the diameter of a colony. The growth rate of the mold thus obtained on the plate culture containing the chemical material is compared with the growth rate of the mold in the non-addition area of the chemical material to find the suppression rate of the mold elongation by the following formula 3. R=100 (dc−dt)/dc (Formula 3) [wherein, R is the suppression rate of the mold elongation (%), dc is the diameter of a colony on an untreated plate and dt is the diameter of a colony on a chemical-treated plate, respectively.]
(§5) • 5: Mold whose suppression rate of the mold elongation is • 90% or higher • 4: Mold whose suppression rate of the mold elongation is less than 90% and 70% or higher • 3: Mold whose suppression rate of the mold elongation is less than 70% and 40% or higher • 2: Mold whose suppression rate of the mold elongation is less than 40% and 20% or higher • 1: Mold whose suppression rate of the mold elongation is less than 20%
(§6) In addition, the meanings of the abbreviated letters in Table 22 are as follows: • B. c.; Botrytis cinerea • P. h.; Pseudocercosporella herpotrichoides • M. n.; Microdohium nivale • L. n.; Leptosphaeria nodorum

[2] = system: Pseudocercosporella herpotrichoides; assay: as above; type: cell-based; conditions: final concentration 100 mg/l, 1 to 3 days; for inhibition at 100 µg/mL: Oculimacula yallundae, read-out: Inhibition Rate of Growth (suppression rate of the mold elongation, 5-step grade) P.h.
Description: as §1, §2, §3, §4, §5, §6

Botrytis cinerea = assay: as above; type: cell-based; conditions: final concentration 100 mg/l, 1 to 3 days; for inhibition at 100 µg/mL: Botrytis cinerea, read-out: Inhibition Rate of Growth (suppression rate of the mold elongation, 5-step grade) B.c.
Description: as §1, §2, §3, §4, §5, §6

Leptosphaeria nodorum = assay: as above; type: cell-based; conditions: final concentration 100 mg/l, 1 to 3 days; for inhibition at 100 µg/mL: Parastagonospora nodorum, read-out: Inhibition Rate of Growth (suppression rate of the mold elongation, 5-step grade) L.n.
Description: as §1, §2, §3, §4, §5, §6

Venturia inaequalis = assay: as above; type: cell-based; conditions: final concentration 100 mg/l, 1 to 3 days; for inhibition at 100 µg/mL: Venturia inaequalis, read-out: Inhibition Rate of Growth (suppression rate of the mold elongation, 5-step grade) V.i.
Description: as §1, §2, §3, §4, §5
V. i.: Venturia inaequalis

cucumber powdery mildew = assay: Preventive effect of cucumber powdery mildew (wettable powder sprayed on potted cucumber, preventive value); type: in vivo; conditions: wettable powder suspended at 100 mg/l, sprayed on potted cucumber at 100 l/10 a; morbidity investigated 9th to 14th day after inoculation
Description: (Preventive Effect of Cucumber Powdery Mildew)
The wettable powders obtained by using each compound were diluted with water and were suspended at a predetermined concentration (100 mg/l) and the solution was sprayed over the first to second leaf stage-cucumber (variety: “Sagamihanpakufushinari”) cultivated by using a square plastic pot (size: 6.4 cm×6.4 cm) at a rate of 100 1/10 a.
After the sprayed leaves were air-dried, the spore was inoculated over the aforementioned air-dried leaves from the contracted leaves with a brush, and the contraction was performed in a glass greenhouse (temperature: 20 to 24° C. and relative humidity: 20 to 70 RH). The morbidity rate was investigated based on the same investigation standard as that in the preventive effect test of the cucumber gray mold on 9th to 14th day after the inoculation, and the preventive value was calculated according to the aforementioned formula 2.

cucumber gray mold = assay: Preventive effect test of cucumber gray mold (wettable powder sprayed on potted cucumber, preventive value); type: in vivo; conditions: wettable powder suspended at 250 mg/l, sprayed on potted cucumber at 100 l/10 a; morbidity investigated 4th to 6th day after inoculation
Description: (Preventive Effect Test of Cucumber Gray Mold)
The wettable powders obtained by using each compound were diluted with water and were suspended at a predetermined concentration (250 mg/l) and the solution was sprayed over the first to second leaf stage-cucumber (variety: “Sagamihanpakufushinari”) cultivated by using a square plastic pot (size: 6.4 cm×6.4 cm) at a rate of 100 1/10 a.
After the sprayed leaves were air-dried, a paper disk where the solution of the spore of the gray mold suspended with water was impregnated was put on the aforementioned sprayed leaves, and the leaves were contracted in a glass greenhouse (temperature: 20 to 24° C. and relative humidity: 20 to 70 RH). The morbidity rate was investigated based on the following investigation standard on 4th to 6th day after the inoculation and the preventive value was calculated according to the following formula 2.

CC(C)(CNCc1ccccn1)Cc1ccc(C(C)(C)C)cc1 [Compound I-1]
80% Growth Inhibition Concentration (IC80) (Aspergillus fumigatus): 5 µg/mL

CC(C)(CNCc1ccc(Cl)nc1)Cc1ccc(C(C)(C)C)cc1 [Compound I-2]
Preventive Value (%) [1]: 100% | 80% Growth Inhibition Concentration (IC80) (Aspergillus fumigatus): 38 µg/mL

CC(C)(CNCc1ccc(Cl)nc1)Cc1ccccc1Cl [Compound I-3]
80% Growth Inhibition Concentration (IC80) (Aspergillus fumigatus): 9 µg/mL

CC(C)(CNCc1cnccn1)Cc1ccc(C(C)(C)C)cc1 [Compound I-4, N-[3-(4-t-butylphenyl)-2,2-dimethylpropyl]-2-pyrazylmethylamine]
80% Growth Inhibition Concentration (IC80) (Aspergillus fumigatus): 75 µg/mL | 80% Growth Inhibition Concentration (IC80) (Candida albicans): 75 µg/mL

CC(C)(CNCc1cnc(Cl)cn1)Cc1ccc(C(C)(C)C)cc1 [Compound I-5]
80% Growth Inhibition Concentration (IC80) (Aspergillus fumigatus): 9 µg/mL

Cn1cc(CNCC(C)(C)Cc2ccc(C(C)(C)C)cc2)cn1 [Compound I-6]
80% Growth Inhibition Concentration (IC80) (Aspergillus fumigatus): 9 µg/mL | 80% Growth Inhibition Concentration (IC80) (Candida albicans): 18 µg/mL

Cn1cc(CNCC(C)(C)Cc2ccccc2F)cn1 [Compound I-7]
80% Growth Inhibition Concentration (IC80) (Aspergillus fumigatus): 150 µg/mL

Cn1cc(CNCC(C)(C)Cc2ccc(F)cc2F)cn1 [Compound I-9]
80% Growth Inhibition Concentration (IC80) (Aspergillus fumigatus): 150 µg/mL

CC(C)(CNCc1c[nH]cn1)Cc1ccc(C(C)(C)C)cc1 [Compound I-11]
80% Growth Inhibition Concentration (IC80) (Candida albicans): 150 µg/mL

CC(C)(CNCc1c[nH]cn1)Cc1ccc(F)cc1F [Compound I-12]
80% Growth Inhibition Concentration (IC80) (Candida albicans): 18 µg/mL

CN(Cc1ccc(Cl)nc1)CC(C)(C)Cc1ccc(C(C)(C)C)cc1 [Compound I-18, N-[3-(4-t-butylphenyl)-2,2-dimethylpropyl]-6-chloro-N-methyl-3-pyridylmethylamine]
inhibition at 100 µg/mL (Microdohium nivale): ≥ 90% | inhibition at 100 µg/mL [2]: ≥ 90% | inhibition at 100 µg/mL (Botrytis cinerea): ≥ 90% | inhibition at 100 µg/mL (Leptosphaeria nodorum): ≥ 90% | Preventive Value (%) [1]: 100% | inhibition at 100 µg/mL (Venturia inaequalis): ≥ 90%

CC(C)(CNCc1ccc(Cl)nc1)Cc1ccc(OC(F)(F)F)cc1 [Compound I-45, 6-chloro-N-[2,2-dimethyl-3-(4-trifluoromethoxyphenyl)propyl]-3-pyridylmethylamine]
inhibition at 100 µg/mL (Microdohium nivale): ≥ 90% | inhibition at 100 µg/mL [2]: ≥ 90% | inhibition at 100 µg/mL (Botrytis cinerea): ≥ 90% | inhibition at 100 µg/mL (Leptosphaeria nodorum): ≥ 90% | Preventive Value (%) [1]: 100% | inhibition at 100 µg/mL (Venturia inaequalis): ≥ 90% | Preventive Value (%) (cucumber powdery mildew): 100% | Preventive Value (%) (cucumber gray mold): 100%

CC(CCc1cc(Cl)cc(Cl)c1)CN(C)Cc1ccc(Cl)nc1 (centres unmarked) [Compound I-57]
Inhibition Rate of Growth (suppression rate of the mold elongation, 5-step grade) M.n. (Microdohium nivale): 5 (Mold whose suppression rate of the mold elongation is • 90% or higher) | Inhibition Rate of Growth (suppression rate of the mold elongation, 5-step grade) P.h. [2]: 5 (Mold whose suppression rate of the mold elongation is • 90% or higher) | Inhibition Rate of Growth (suppression rate of the mold elongation, 5-step grade) B.c. (Botrytis cinerea): 5 (Mold whose suppression rate of the mold elongation is • 90% or higher) | Inhibition Rate of Growth (suppression rate of the mold elongation, 5-step grade) L.n. (Leptosphaeria nodorum): 5 (Mold whose suppression rate of the mold elongation is • 90% or higher) | Preventive Value (%) [1]: 100% | Inhibition Rate of Growth (suppression rate of the mold elongation, 5-step grade) V.i. (Venturia inaequalis): 5 (Mold whose suppression rate of the mold elongation is • 90% or higher) | Preventive Value (%) (cucumber powdery mildew): 100%

CC(CCc1cccc(OC(F)(F)F)c1)CN(C)Cc1ccc(Cl)nc1 (centres unmarked) [Compound I-58, 6-chloro-N-[2-methyl-4-(3-trifluoromethoxyphenyl)butyl]-N-methyl-3-pyridylmethylamine]
inhibition at 100 µg/mL (Microdohium nivale): ≥ 90% | inhibition at 100 µg/mL [2]: ≥ 90% | inhibition at 100 µg/mL (Botrytis cinerea): ≥ 90% | inhibition at 100 µg/mL (Leptosphaeria nodorum): ≥ 90% | Preventive Value (%) [1]: 100% | inhibition at 100 µg/mL (Venturia inaequalis): ≥ 90%

CC(CCc1ccc(OC(F)(F)F)cc1)CN(C)Cc1ccc(Cl)nc1 (centres unmarked) [Compound I-60]
Inhibition Rate of Growth (suppression rate of the mold elongation, 5-step grade) M.n. (Microdohium nivale): 5 (Mold whose suppression rate of the mold elongation is • 90% or higher) | Inhibition Rate of Growth (suppression rate of the mold elongation, 5-step grade) P.h. [2]: 5 (Mold whose suppression rate of the mold elongation is • 90% or higher) | Inhibition Rate of Growth (suppression rate of the mold elongation, 5-step grade) B.c. (Botrytis cinerea): 5 (Mold whose suppression rate of the mold elongation is • 90% or higher) | Inhibition Rate of Growth (suppression rate of the mold elongation, 5-step grade) L.n. (Leptosphaeria nodorum): 5 (Mold whose suppression rate of the mold elongation is • 90% or higher) | Preventive Value (%) [1]: 100% | Inhibition Rate of Growth (suppression rate of the mold elongation, 5-step grade) V.i. (Venturia inaequalis): 5 (Mold whose suppression rate of the mold elongation is • 90% or higher) | Preventive Value (%) (cucumber gray mold): 100%

Source: patent US20050101783A1, “N-(heterocycle-methyl)alkylamine derivative, process for producing the same, and bactericide” (priority 2000, published 2005)
